Source: patent publication US11071790B2, “Method for efficient delivery of therapeutic molecules in vitro and in vivo” (Massachusetts Eye and Ear Infirmary, priority 2014, dated 2021)
No end group written: not given here.

Legend:
[1] = tested on: BSR.LNL.tdTomato cells; assay: primary screen for cytosolic delivery of Cre recombinase (fluorescence image analysis); type: cell-based, hamster
Description: Initial screen of 20 peptide-(+36 GFP)-Cre conjugated proteins. Cytosolic Cre delivery results in recombination and tdTomato expression. The percentage of tdTomato positive cells was determined by fluorescence image analysis. […] Cells were washed and supplanted with full DMEM and incubated for 48 h. Error bars represent the standard deviation of three independent biological replicates.
BSR.LNL.tdTomato cells were plated at 10,000 cells per well in black 384-well plates (Aurora Biotechnologies). […] Following incubation, the cells were washed three times with PBS+20 U/mL heparin. The cells were incubated a further 48 h in serum-containing media. Cells were fixed in 3% paraformaldehyde and stained with Hoescht 33342 nuclear dye. Images were acquired on an ImageXpress Micro automated microscope (Molecular Devices) using a 4× objective (binning 2, gain 2), with laser- and image-based focusing (offset −130 μm, range ±50 μm, step 25 μm). Images were exposed for 10 ms in the DAPI channel (Hoechst) and 500 ms in the dsRed channel (tdTomato). Image analysis was performed using the cell-scoring module of MetaXpress software (Molecular Devices). All nuclei were detected with a minimum width of 1 pixel, maximum width of 3 pixels, and an intensity of 200 gray levels above background. […] In total, nine images were captured and analyzed per well, and 16 wells were treated with the same fusion protein. The primary screen was completed in biological triplicate.
Because Cre recombinase must enter the cell, escape endosomes, enter the nucleus, and catalyze recombination to generate tdTomato fluorescence, this assay reflects the availability of active, non-endosomal recombinase enzyme that reaches the nucleus.
The reporter BSR.LNL.tdTomato cells were incubated with 250 nM of each peptide-(+36 GFP)-Cre protein in serum-free media.

[2] = tested on: BSR.LNL.tdTomato cells; assay: Cre delivery assay of recombinant fusion proteins (flow cytometry); type: cell-based, hamster; conditions: 250 nM, fused to +36 GFP-Cre
Description: (§1) FIGS. 15A, 15B are graphs showing the efficacy and toxicity of recombinant expression fusions of aurein 1.2 (“E”) and citropin 1.3 (“U”). […] The percentage of tdTomato positive cells was determined by flow cytometry. Protein fusions were delivered at 125 nM, 250 nM, 500 nM, and 1 μM. […] Protein fusions were delivered at 125 nM, 250 nM, 500 nM, and 1 μM. […] Cells were treated with 250 nM protein for 4 h in serum-free media. Cells were washed and supplanted with full DMEM and incubated for 48 h. Error bars represent the standard deviation of three independent biological replicates.
The percentage of tdTomato positive cells was determined by flow cytometry. […] Cells were washed and supplanted with full DMEM and incubated for 48 h.
(§2) Uptake and delivery assays for Cre fusion proteins were performed as previously described (Cronican, J. J.; et al. ACS Chemical Biology 2010, 5, 747). Briefly, proteins were diluted in serum-free DMEM and incubated on the cells in 48-well plates for 4 h at 37° C. Following incubation, the cells were washed three times with PBS+20 U/mL heparin. The cells were incubated a further 48 h in serum-containing media prior to trypsinization and analysis by flow cytometry. […] Toxicity for alanine scan mutational analysis was determined with LIVE/DEAD fixable far-red dead cell stain (Life Technologies) with 635 nm laser and 670/30 nm filter.

[3] = tested on: cochlear hair cells and supporting cells of Rosa-tdTomato f/f mouse; assay: Cre delivery into Rosa-tdTomato mouse cochlea in vivo (tdT labeling); conditions: for tdT-labeled hair cells: near the injection site (base turn of cochlea)
Description: FIGS. 10A and 10B show the in vivo delivery of Cre recombinase to hair cells in the mouse inner ear. FIG. 10A: The scala media (cochlear duct) of P0 floxP-tdTomato mice (n=4) were injected with 0.3 μL of 23 μM (−30)GFP-Cre in 50% RNAiMAX or with RNAiMAX alone (control). […] Red=tdTomato; green=Myo7a; white=Sox2; blue=DAPI. Yellow brackets indicate the outer hair cell (OHC) region. […] Red=tdTomato; green=Esp, white=Sox2; blue=DAPI, Scale bars: 10 μm.
FIGS. 11A-11E show the high efficiency of protein delivery mediated by aurein in the inner ear in vivo. […] FIG. 11E: In Opti-MEM injected control mice no tdT labeling was detected in any inner ear cells. Scale bars: 10 μm.
The use of (−30)-GFP protein and a new positively charged (+36)-GFP protein to carry Cre, (−30)-GFP-Cre and (+36)-GFP-Cre, was tested for injection into mouse cochlea in vivo. The mouse used was Rosa-tdTomato^f/f in which functional Cre activity in the nuclei results in cells being labeled with tdT (red). It was shown that both (−30)-GFP-Cre and (+36)-GFP-Cre injections led to tdT expression in the cochlear hair cells.
It was next tested whether Aurein, an antimicrobial peptide, in combination with s-GFP, can serve as an effective carrier to deliver functional proteins into mouse inner ear cell types with high efficiency. (+36)-GFP-aurein-Cre was injected with different concentrations into P3 Rosa-tdT mouse inner ear by cochleostomy in vivo. The tissues were harvested 5 days later for immunolabeling to identify tdT^+ inner ear cell types. […] At 22.5 μM, 58% of OHC and 75% of IHC, as well as 8% of SC were tdT^+. At the highest 50 μM, 96% of OHC, 88% of IHC and 19% of SC were tdT^+. Some spiral ganglion neurons were also tdT^+ at 22.5 and 50 μM (FIGS. 11A-11E and FIG. 12).

[4] = tested on: cochlear hair cells of Rosa26-tdTomato mice; assay: in vivo delivery of Cre recombinase into mouse neonatal cochlea (tdTomato recombination)
Description: 0.4 μL of 50 μM+36 GFP-Cre or aurein 1.2-+36 GFP-Cre were injected into the scala media. […] Inner hair cells (IHC), outer hair cells (OHC) and supporting cells in the sensory epithelium (SE) were imaged for the presence of tdTomato, which is only expressed following Cre-mediated recombination. Hair cells were labeled with antibodies against the hair-cell marker Myo7a.
P1-2 Gt(ROSA)26Sor^tm14(CAG-tdTomato)Hze mice were used for aurein 1.2-+36-GFP-Cre and +36-GFP-Cre injection. The Rosa26-tdTomato mice were from the Jackson Laboratory. […] Mice were anesthetized by hypothermia on ice. Cochleostomies were performed by making an incision behind the ear to expose the cochlea. Glass micropipettes held by a micromanipulator were used to deliver the complex into the scala media, which allows access to inner ear hair cells. […]
To quantify the number of tdTomato positive cells after aurein 1.2-+36-GFP-Cre and +36-GFP-Cre, we counted the total number of inner and outer hair cells in a region spanning 100 μm in the apex, middle, and base turn of the cochlea.
Anesthetized postnatal day 2 (P2) mice were injected with 0.4 μL of 50 μM+36 GFP-Cre or aurein 1.2-+36 GFP-Cre solutions in the scala media to access the cochlear cells. […] Both the hair cells (Myo7a+) and supporting cells (Myo7a−) were evaluated for td Tomato signal.

[5] = tested on: BSR.LNL.tdTomato cells; assay: ATP-dependent cell viability assay (CELLTITER-GLO); conditions: 1 μM, 48 h after treatment
Description: as §1, §2
Next, the toxicity of each fusion protein was evaluated at a range of concentrations (125 nM to 1 μM) using an ATP-dependent cell viability assay at 48 h after treatment.

[6] = tested on: glucocorticoid receptor (GR-mCherry) in HeLa cells; assay: GR-mCherry translocation assay; type: cell-based; conditions: 1 μM, 30 min
Description: One day prior to transfection 10,000 HeLa cells in 200 μL of DMEM (10% FBS, 1× Pen-Strep) were plated into single wells of a 96-well MATRICAL glass bottom microplate (MGB096-1-2-LG-L) and allowed to adhere overnight. The following day, cells were transfected with GRmCherry using LIPOFECTAMINE® 2000 technologies. Following transfection, cells were allowed to recover overnight in DMEM (+10% FBS). The following day, cells were treated with dexamethasone (Dex) or 1 μM Dex-protein conjugate in the presence or absence of inhibitor diluted into DMEM (without phenol red, +300 nM Hoescht33342). After 30 min, cells were washed twice with 200 μL of HEPES-Krebs-Ringer's (HKR) buffer (140 mM NaCl, 2 mM KCl, 1 mM CaCl2, 1 mM MgCl2, and 10 mM HEPES at pH 7.4), after which 100 μL of HKR buffer was overlaid onto the cells and images were acquired on a Zeiss Axiovert 200M epifluorescence microscope outfitted with Ziess AxiocammRM camera and an EXFO-Excite series 120 Hg arc lamp. The translocation ratio (the ratio of median […] intensity in the nuclear and surrounding regions) for individual cells was measured using CELLPROFILER® as described 36. […]
Although endosomal escape is widely considered to be the major bottleneck of cationic protein delivery (Sahay, G.; et al. Nature Biotechnology 2013, 31, 653), few assays quantify the ability of proteins to escape endosomes on a single-cell basis.

With GLFDIIKKVASVIGGL [citropin 1.3] as the substance, how does the “level of recombination in the primary screen” value ([1]; 250 nM sortase conjugate of +36 GFP-Cre) read?
The value was “moderate level of recombination”.

Which “overall recombination efficiency of aurein 1.2 variants” value [2] does the source give for GLFDIIKKIAEAF [S12A] here?
The value was “potentially improved overall recombination efficiency”.

GLFDIIKRIAESF [K8R] was tested. Which “overall recombination efficiency of aurein 1.2 variants” value [2] did it give?
The value was “potentially improved overall recombination efficiency”.

Which results are given for “+36 GFP-Cre: superpositively charged GFP fused to Cre recombinase, SEQ ID NO: 1”?
tdT labeling of cochlear cells ([3]; 50 μM): very few IHC and HC were labeled with tdT; tdT-labeled hair cells [3]: ~30%; recombined cells ([1]; 250 nM protein with 100 μM chloroquine (positive control)): 48%; cells expressing tdTomato (recombined cells) ([1]; 250 nM protein, 4 h serum-free, 48 h): 4.5%; Cre-mediated recombination in inner hair cells (IHC) ([4]; apex, 50 μM): 4.4%; viable cells [5]: 85%

Which “nuclear-to-cytoplasm translocation ratio (TR)” value [6] does the source give for “Arg8^Dex: dexamethasone-labeled canonical cell permeable peptide Arg8, SEQ ID NO: 102 (RRRRRRRR; also: dexamethasone label, site not given here)” here?
The value was 1.63.

Which “potency of Cre delivery into cochlear hair cells when fused with aurein 1.2 versus absence of the peptide” value ([4]; live mice) does the source give for “GLFDIIKKIAESF (listed as Litoria aurea) [aurein 1.2]” here?
Its value is > 20 fold.

What does the source list for “(−30)-GFP-Cre: negatively supercharged GFP fused to Cre recombinase, SEQ ID NO: 4”?
tdT-labeled hair cells [3]: ~30%; stereocilia of tdTomato-positive outer hair cells ([3]; ten days after delivery, 23 μM in 50% RNAiMAX): intact espin (Esp)-expressing stereocilia of tdTomato-positive outer hair cells were present
